# According to patent publication US20180141913A1 (EISAI R & D MANAGEMENT CO., LTD., priority 2016, published 2018):
# What was measured:
# [1] = test system: MCF7-WT cells (MCF7 ER-alpha wildtype); assay: In vitro proliferation (viability) assay, MCF7-WT cells; format: cell-based; details: Homo sapiens, MCF7; CellTiter-Glo, day 6 vs day 0; average ± standard deviation; free base and/or salt forms; read-out: MCF7 WT GI50
# Procedure: (§1) MCF7 BUS cells (Coser, et al., (2003) PNAS 100(24): 13994-13999) were maintained in Dulbecco's Modified Eagle Medium supplemented with 10% FBS, 4 mM L-glutamine and 1× non-essential amino acids. Lenti-X 293T cells (Clontech, Cat #632180) were routinely cultured in Dulbecco's Modified Eagle Medium supplemented with 10% FBS.
# (§2) The QuikChange II XL Site-Directed Mutagenesis Kit (Agilent Technologies, Cat #200523) was used to generate Y537S, Y537C, Y537N and D538G mutations within the ERα exon 8. Wild-type ESR1 cDNA (GeneCopoeia Inc., Cat# GC-A0322, accession no. NM 000125) was used as a template with the following mutagenesis primers (where the underlined nucleotides represent site mutations); Y537S: F-AAGAACGTGGTGCCCCTCTCTGACCTGCTGCTGGAGATG (SEQ ID NO: 1), R-CATCTCCAGCAGCAGGTCAGAGAGGGGCACCACGTTCTT (SEQ ID NO: 2); Y537N: F-AAGAACGTGGTGCCCCTCAATGACCTGCTGCTGGAGATG (SEQ ID NO: 3), R-CATCTCCAGCAGCAGGTCATTGAGGGGCACCACGTTCTT (SEQ ID NO: 4); Y537C: F-AAGAACGTGGTGCCCCTCTGTGACCTGCTGCTGGAGATG (SEQ ID NO: 5), R-CATCTCCAGCAGCAGGTCACAGAGGGGCACCACGTTCTT (SEQ ID NO: 6); D538G: F-AACGTGGTGCCCCTCTATGGCCTGCTGCTGGAGATGCTG (SEQ ID NO: 7), R-CAGCATCTCCAGCAGCAGGCCATAGAGGGGCACCACGTT (SEQ ID NO: 8). WT and mutant ESR1 cDNAs were cloned into the designation lentiviral vector pLenti6.3/V5-Dest (Invitrogen, Cat #V533-06). To make lentivirus, DNAs (WT and mutant ESR1) were co-transfected with packaging plasmids into Lenti-X 293T cells using TransIT (Mirus, Cat #MIR 2700). 48 h post-transfection, virus containing media was filtered and added to MCF7 cells in the presence of 8 µg/ml polybrene overnight. Two days following infection, cells were placed under selection with 10 µg/ml blasticidin for 2 weeks for stable expression.
# (§3) MCF7-WT and -Y537S cells were seeded at 1500 cells/well in black-walled 96-well plates (assay plates, Costar, Cat #3904). In parallel, cells were also seeded in a separate 96-well plate (8 wells/cell line, control plate) for which a CTG (CellTiter-Glo® Luminescent Viability Assay, Promega, Cat #G7572) was measured the following day (day 0 reading). The day 0 reading was used for the GI50 calculation at the termination of the experiment. The day following seeding, compounds were added to assay plates. Briefly, a 1:4 serial dilution was prepared in DMSO at 200× final concentration for a total of 10 concentrations (9 dilutions containing compound and one is DMSO only). Serially diluted compounds were pipetted into medium to prepare a compound-medium mix at 10× final concentration. 10 μl of compound-medium mix was added to MCF7-WT and -Y537S cells at 3 wells/concentration (triplicate for each concentration). On day 3, media/compound was removed and replaced with fresh media/compound as described above. On day 6, CTG was measured and compared to day 0 readings from control plate to assess GI50.
# [2] = test system: MCF7-Y537S cells (MCF7 ER-alpha Y537S mutant); assay: In vitro proliferation (viability) assay, MCF7-Y537S cells; format: cell-based; details: Homo sapiens, MCF7; CellTiter-Glo, day 6 vs day 0; average ± standard deviation; free base and/or salt forms; read-out: MCF7 Y537S GI50
# Procedure: as §1, §2, §3
Structure (SMILES),GI50 [1] [nM],GI50 [2] [nM]
"O=C(CCCNCCOc1ccc(/C(=C(/CC(F)(F)F)c2ccccc2)c2ccc3[nH]nc(F)c3c2)cc1)N1CCCC1 [Compound 41, (E)-1-(pyrrolidin-1-yl)-4-((2-(4-(4,4,4-trifluoro-1-(3-fluoro-1H-indazol-5-yl)-2-phenylbut-1-en-1-yl)phenoxy)ethyl)amino)butan-1-one]",0.24 ± 0.04,9.38 ± 7.61
"O=C1NCCC1CCNCCOc1ccc(/C(=C(/CC(F)(F)F)c2ccccc2)c2ccc3[nH]nc(F)c3c2)cn1 (stereo not shown) [Compound 53, (Z)-3-(2-((2-((5-(4,4,4-trifluoro-1-(3-fluoro-1H-indazol-5-yl)-2-phenylbut-1-en-1-yl)pyridin-2-yl)oxy)ethyl)amino)ethyl)pyrrolidin-2-one]",0.3,1.8
"CNC(=O)/C=C/CNCCOc1ccc(/C(=C/CC(F)(F)F)c2ccc3[nH]nc(F)c3c2)nn1 [Compound 69, (E)-N-methyl-4-((2-((6-((E)-4,4,4-trifluoro-1-(3-fluoro-1H-indazol-5-yl)but-1-en-1-yl)pyridazin-3-yl)oxy)ethyl)amino)but-2-enamide]",8080,9400
"CNC(=O)/C=C/CNCCOc1ccc(/C(=C(\c2ccccc2)C2CC2)c2ccc3[nH]nc(F)c3c2)cc1 [Compound 63, (E)-4-((2-(4-((E)-2-cyclopropyl-1-(3-fluoro-1H-indazol-5-yl)-2-phenylvinyl)phenoxy)ethyl)amino)-N-methylbut-2-enamide]",17.9 ± 8.66,117 ± 11.6
"CNC(=O)/C=C/CNCCOc1ccc(/C(=C(/CC(F)(F)F)c2ccc(F)cc2Cl)c2ccc3[nH]ncc3c2)cn1 [Compound 58, (E)-4-((2-((5-((Z)-2-(2-chloro-4-fluorophenyl)-4,4,4-trifluoro-4,4,4-trifluoro-1-(1H-indazol-5-yl)but-1-en-1-yl)pyridin-2-yl)oxy)ethyl)amino)-N-methylbut-2-enamide]",0.33 ± 0.12,3.97 ± 2.25
"CNC(=O)/C=C/CNCCOc1ccc(/C(=C(\c2ccccc2)C(C)C)c2ccc3[nH]nc(F)c3c2)cc1 [Compound 68, (E)-4-((2-(4-((E)-1-(3-fluoro-1H-indazol-5-yl)-3-methyl-2-phenylbut-1-en-1-yl)phenoxy)ethyl)amino)-N-methylbut-2-enamide]",22 ± 2.66,101 ± 53
"CNC(=O)/C=C/CNCCOc1ccc(/C(=C(\c2ccccc2)C2CCC2)c2ccc3[nH]ncc3c2)cc1 [Compound 11, (E)-4-((2-(4-((E)-2-cyclobutyl-1-(1H-indazol-5-yl)-2-phenylvinyl)phenoxy)ethyl)amino)-N-methylbut-2-enamide]",2.08 ± 1.55,32.7 ± 22.2
"CC/C(=C(/c1ccc(OCCNC/C=C/C(=O)NC)cc1)c1ccc2[nH]ncc2c1)c1ccccc1 [Compound 50, (E)-4-((2-(4-((E)-1-(1H-indazol-5-yl)-2-phenylbut-1-en-1-yl)phenoxy)ethyl)amino)-N-methylbut-2-enamide]",4 ± 1.16,98.5 ± 81.5
"CNC(=O)/C=C/CNCCOc1ccc(/C(=C(/CCCl)c2ccccc2)c2ccc3[nH]nc(F)c3c2)cc1 [Compound 66, (E)-4-((2-(4-((E)-4-chloro-1-(3-fluoro-1H-indazol-5-yl)-2-phenylbut-1-en-1-yl)phenoxy)ethyl)amino)-N-methylbut-2-enamide]",437 ± 55.2,> 10000
"CNC(=O)/C=C/CNCCOc1ccc(/C(=C(/CC(F)(F)F)c2ccc(F)cc2Cl)c2ccc3[nH]ncc3c2)cc1 [Compound 46, (E)-4-((2-(4-((E)-2-(2-chloro-4-fluorophenyl)-4,4,4-trifluoro-1-(1H-indazol-5-yl)but-1-en-1-yl)phenoxy)ethyl)amino)-N-methylbut-2-enamide]",1.38 ± 0.44,13.8 ± 5.1
"CC/C(=C(/c1ccc(OCCNCCCC(=O)NC)cc1)c1ccc2[nH]ncc2c1)c1ccccc1 [Compound 51, (E)-4-((2-(4-(1-(1H-indazol-5-yl)-2-phenylbut-1-en-1-yl)phenoxy)ethyl)amino)-N-methylbutanamide]",9.82 ± 1.92,190 ± 50.1
"COCCNC(=O)/C=C/CNCCOc1ccc(/C(=C(/CC(F)(F)F)c2ccccc2)c2ccc3[nH]nc(F)c3c2)cn1 [Compound 20, (E)-N-(2-methoxyethyl)-4-((2-((5-((Z)-4,4,4-trifluoro-1-(3-fluoro-1H-indazol-5-yl)-2-phenylbut-1-en-1-yl)pyridin-2-yl)oxy)ethyl)amino)but-2-enamide]",0.66 ± 0.13,6.08 ± 2.69

# Results, then the molecule that gave them:
GI50 [1] [nM],GI50 [2] [nM],Structure (SMILES)
4.09 ± 2.74,46.4 ± 23.2,"CC/C(=C(/c1ccc(OCCNCCCC(=O)N(C)C)cc1)c1ccc2[nH]ncc2c1)c1ccccc1 [Compound 4, (E)-4-(2-(4-(1-(1H-indazol-5-yl)-2-phenylbut-1-enyl)phenoxy)ethylamino)-N,N-dimethylbutanamide]"
0.38 ± 0.16,1.58 ± 0.23,"Cl.[2H]C([2H])([2H])N(C(=O)/C=C/CNCCOc1ccc(/C(=C(/CC(F)(F)F)c2ccccc2)c2ccc3[nH]ncc3c2)cn1)C([2H])([2H])[2H] [Compound 25, (E)-N,N-di(H3)methyl-4-((2-((5-((Z)-4,4,4-trifluoro-1-(1H-indazol-5-yl)-2-phenylbut-1-en-1-yl)pyridin-2-yl)oxy)ethyl)amino)but-2-enamide]"
892 ± 528,7690,"CNC(=O)/C=C/CNCCOc1ccc(/C(=C(/CC(F)(F)F)c2ccccc2)c2ccc3[nH]nc(F)c3c2)nn1 [Compound 54, (E)-N-methyl-4-((2-((6-((Z)-4,4,4-trifluoro-1-(3-fluoro-1H-indazol-5-yl)-2-phenylbut-1-en-1-yl)pyridazin-3-yl)oxy)ethyl)amino)but-2-enamide]"
0.72 ± 0.24,4.91 ± 0.65,"O=C(/C=C/CNCCOc1ccc(/C(=C(/CC(F)(F)F)c2ccccc2)c2ccc3[nH]nc(F)c3c2)cn1)N1CCOCC1 [Compound 18, (E)-1-morpholino-4-(2-(5-((Z)-4,4,4-trifluoro-1-(3-fluoro-1H-indazol-5-yl)-2-phenylbut-1-enyl)pyridin-2-yloxy)ethylamino)but-2-en-1-one]"
88.5 ± 42.7,180 ± 227,"CNC(=O)/C=C/CNCCOc1ccc(/C(CC(F)(F)F)=C(\c2ccccc2)c2ccc3[nH]nc(F)c3c2)cn1 [Compound 5, (E)-N-methyl-4-((2-((5-((E)-4,4,4-trifluoro-1-(3-fluoro-1H-indazol-5-yl)-1-phenylbut-1-en-2-yl)pyridin-2-yl)oxy)ethyl)amino)but-2-enamide]"
173 ± 51.7,2420,"CC/C(=C(/c1ccc(OCCNC/C=C/C(=O)NC)nc1)c1ccc2[nH]nc(C)c2c1)c1ccccc1 [Compound 49, (E)-N-methyl-4-((2-((5-((Z)-1-(3-methyl-1H-indazol-5-yl)-2-phenylbut-1-en-1-yl)pyridin-2-yl)oxy)ethyl)amino)but-2-enamide]"
0.38,5.5 ± 0.47,"CNC(=O)/C=C/CCNCCOc1ccc(/C(=C(/CC(F)(F)F)c2ccccc2)c2ccc3[nH]nc(F)c3c2)cn1 [Compound 6, (E)-N-methyl-5-((2-((5-((Z)-4,4,4-trifluoro-1-(3-fluoro-1H-indazol-5-yl)-2-phenylbut-1-en-1-yl)pyridin-2-yl)oxy)ethyl)amino)pent-2-enamide]"
3.31 ± 0.43,14.5 ± 4.32,"CC/C(=C(/c1ccc(OCCNCCCC(=O)NC)nc1)c1ccc2[nH]ncc2c1)c1ccccc1 [Compound 62, (Z)-4-((2-((5-(1-(1H-indazol-5-yl)-2-phenylbut-1-en-1-yl)pyridin-2-yl)oxy)ethyl)amino)-N-methylbutanamide]"
